Measured values published in ChEMBL document CHEMBL5244269, “Improving metabolic stability and removing aldehyde oxidase liability in a 5-azaquinazoline series of IRAK4 inhibitors” (Bioorg Med Chem, 2020).

Key:
Format in all cases: functional
OCI-Ly10 [1] = assay: Growth inhibition of human OCILY10 cells at 0.033 uM incubated for 3 days (Rvb= -3%); conditions: OCI-Ly10, 72 h, time 3 day, read-out: GI
SUD4 [2] = assay: Growth inhibition of human SU-DHL-4 cells at 0.017 uM incubated for 3 days (reference value: -1%); conditions: SU-DHL-4, 72 h, time 3 day, read-out: GI
OCI-Ly10 [3] = assay: Growth inhibition of human OCILY10 cells at 0.17 uM incubated for 3 days (Rvb= -2%); conditions: OCI-Ly10, 72 h, time 3 day, read-out: GI
SUD4 [4] = assay: Growth inhibition of human SU-DHL-4 cells at 0.033 uM incubated for 3 days (reference value: -1%); conditions: SU-DHL-4, 72 h, time 3 day, read-out: GI
SUD4 [5] = assay: Growth inhibition of human SU-DHL-4 cells at 0.17 uM incubated for 3 days (reference value: 2%); conditions: SU-DHL-4, 72 h, time 3 day, read-out: GI
SUD4 [6] = assay: Growth inhibition of human SU-DHL-4 cells at 0.003 uM incubated for 3 days (reference value: -1%); conditions: SU-DHL-4, 72 h, time 3 day, read-out: GI
OCI-Ly10 [7] = assay: Growth inhibition of human OCILY10 cells at 3.3 uM incubated for 3 days (Rvb= -3%); conditions: OCI-Ly10, 72 h, time 3 day, read-out: GI
SUD4 [8] = assay: Growth inhibition of human SU-DHL-4 cells at 0.017 uM incubated for 3 days (reference value: 2%); conditions: SU-DHL-4, 72 h, time 3 day, read-out: GI
SUD4 [9] = assay: Growth inhibition of human SU-DHL-4 cells at 0.17 uM incubated for 3 days (reference value: -1%); conditions: SU-DHL-4, 72 h, time 3 day, read-out: GI
SUD4 [10] = assay: Growth inhibition of human SU-DHL-4 cells at 0.033 uM incubated for 3 days (reference value: 2%); conditions: SU-DHL-4, 72 h, time 3 day, read-out: GI
OCI-Ly10 [11] = assay: Growth inhibition of human OCILY10 cells at 0.033 uM incubated for 3 days (reference value: -2%); conditions: OCI-Ly10, 72 h, time 3 day, read-out: GI
OCI-Ly10 [12] = assay: Growth inhibition of human OCILY10 cells at 0.33 uM incubated for 3 days (reference value: -2%); conditions: OCI-Ly10, 72 h, time 3 day, read-out: GI
SUD4 [13] = assay: Growth inhibition of human SU-DHL-4 cells at 0.003 uM incubated for 3 days (reference value: 2%); conditions: SU-DHL-4, 72 h, time 3 day, read-out: GI
OCI-Ly10 [14] = assay: Growth inhibition of human OCILY10 cells at 0.017 uM incubated for 3 days (Rvb= -3%); conditions: OCI-Ly10, 72 h, time 3 day, read-out: GI
OCI-Ly10 [15] = assay: Growth inhibition of human OCILY10 cells at 0.003 uM incubated for 3 days (Rvb= -3%); conditions: OCI-Ly10, 72 h, time 3 day, read-out: GI
SUD4 [16] = assay: Growth inhibition of human SU-DHL-4 cells at 0.33 uM incubated for 3 days (reference value: -1%); conditions: SU-DHL-4, 72 h, time 3 day, read-out: GI
SUD4 [17] = assay: Growth inhibition of human SU-DHL-4 cells at 0.33 uM incubated for 3 days (reference value: 2%); conditions: SU-DHL-4, 72 h, time 3 day, read-out: GI
OCI-Ly10 [18] = assay: Growth inhibition of human OCILY10 cells at 1.7 uM incubated for 3 days (Rvb= -3%); conditions: OCI-Ly10, 72 h, time 3 day, read-out: GI
OCI-Ly10 [19] = assay: Growth inhibition of human OCILY10 cells at 0.003 uM incubated for 3 days (reference value: -2%); conditions: OCI-Ly10, 72 h, time 3 day, read-out: GI
OCI-Ly10 [20] = assay: Growth inhibition of human OCILY10 cells at 0.017 uM incubated for 3 days (reference value: -2%); conditions: OCI-Ly10, 72 h, time 3 day, read-out: GI

Structure (SMILES): CC#CC(=O)N1CCC[C@H]1c1nc(-c2ccc(C(=O)Nc3ccccn3)cc2)c2c(N)nccn12 [ACALABRUTINIB]
- inhibition of growth at 0.033 µM (OCI-Ly10 [1]): 88%
- inhibition of growth at 0.017 µM (SUD4 [2]): -1%
- inhibition of growth at 0.17 µM (OCI-Ly10 [3]): 111%
- inhibition of growth at 0.033 µM (SUD4 [4]): -3%
- inhibition of growth at 0.17 µM (SUD4 [5]): 2%
- inhibition of growth at 0.003 µM (SUD4 [6]): -1%
- inhibition of growth at 3.3 µM (OCI-Ly10 [7]): 113%
- inhibition of growth at 0.017 µM (SUD4 [8]): 2%
- inhibition of growth at 0.17 µM (SUD4 [9]): -3%
- inhibition of growth at 0.033 µM (SUD4 [10]): 2%
- inhibition of growth at 0.033 µM (OCI-Ly10 [11]): 92%
- inhibition of growth at 0.33 µM (OCI-Ly10 [12]): 115%
- inhibition of growth at 0.003 µM (SUD4 [13]): 2%
- inhibition of growth at 0.017 µM (OCI-Ly10 [14]): 71%
- inhibition of growth at 0.003 µM (OCI-Ly10 [15]): 13%
- inhibition of growth at 0.33 µM (SUD4 [16]): -1%
- inhibition of growth at 0.33 µM (SUD4 [17]): 2%
- inhibition of growth at 1.7 µM (OCI-Ly10 [18]): 108%
- inhibition of growth at 0.003 µM (OCI-Ly10 [19]): 16%
- inhibition of growth at 0.017 µM (OCI-Ly10 [20]): 77%
